Reference: patent US20170038384A1, “TREATMENT OF TUMORS EXPRESSING MUTANT P53” (SLOAN-KETTERING INSTITUTE FOR CANCER RESEARCH, priority 2014, published 2017)

Key:
[1] = test system: murine KPC pancreatic cancer cells; assay: MTS assay of KPC cell viability/proliferation; format: cell-based, mouse
Protocol: (§1) FIG. 5B is a graph of MTS assay (E490) of murine KPC and human A2.1 cells treated with crenolanib with various doses for 72 hours. Normalized values are expressed as means±SD form quadruple replicates.
Normalized values are expressed as means±SD form quadruple replicates.
(§2) All cell lines were maintained in DMEM+10% FBS, at 37° C. in 5% CO2. Stable cell lines expressing shRNAs were generated by retroviral mediated gene transfer. Briefly, Phoenix or Ampho packaging cells (for murine or human cell lines, respectively) were transfected by the calcium phosphate method with vectors expressing NF-YA, NF-YB, p53, p73, PDGFRa, PDGFRb or Renilla-control shRNAs, and the generated viruses were harvested to infect KPC, KPflC, or a series of human pancreatic, breast, lung and colon cancer cell lines. Infected cells were selected with puromycin and experiments were carried out on derived cell populations. To generate cells stably expressing mutant p53, p73 or PDGFRb, KPflC cells were infected with MSCV-p53-R175H, -R273H, PDGFRb or pcDNA3-HA-p73α and selected in puromycin and G418 respectively to yield stable pools.

[2] = test system: human A2.1 pancreatic cancer cells; assay: MTS assay of A2.1 cell viability; format: cell-based
Protocol: as §1, §2

PDGFRb [3] = target: T1, PDGFRb (Mus musculus, UniProt P05622); assay: PDGFRb phosphorylation in KPC cells (immunoprecipitation, phospho-Tyrosine western blot); format: cell-based
T1 construct: endogenous in cells; host or cells: murine KPC pancreatic cancer cell line (Kras G12D, p53 R172H, Pdx1-Cre)
Protocol: FIG. 5C depicts immunoprecipitation of PDGFRb from KPC cells starved for 12 hours, treated with either increasing doses of crenolanib or DMSO for 4 hours and subsequently stimulated with 50 ng/ml of PDGF-BB recombinant protein. Protein levels of PDGFRb, phospho-Tyrosine and Tubulin were determined by western blotting.
Protein levels of PDGFRb, phospho-Tyrosine and Tubulin were determined by western blotting.
FIG. 12E depicts immunoprecipitation of PDGFRb from KPC cells treated with DMSO or crenolanib (300 nM) for different time periods. The input protein levels for PDGFRb, phospho-Tyrosine, and Actin and those present in immunoprecipitates for phospho-Tyrosine were determined by western blotting.
To measure levels of endogenously phosphorylated PDGFRb, KPC cells were treated with the drug as described and harvested in phospho-lysis buffer (50 mM Tris pH 7.5, 1% Tween-20, 200 mM NaCl, 0.2% NP-40, phosphatase inhibitors [2.5 mM Sodium pyrophosphate, 1 mM β-Glycerophosphate, 1 mM Na3VO4], and protease inhibitors [Roche]).

PDGFRb [4] = target: T2, PDGFRb (Homo sapiens, UniProt P09619); assay: Western blotting for phospho-PDGFRb in A2.1 cells; format: cell-based; details: 0.3 μM
T2 construct: Western blotting for phospho-PDGFRb, PDGFRb, and Actin in human A2.1 cells; endogenous in cells; host or cells: human A2.1 pancreatic cancer cell line (mutant p53 155P)
From the text: FIG. 12D depicts Western blotting for phospho-PDGFRb, PDGFRb, and Actin in human A2.1 cells after treatment with DMSO or crenolanib at varying doses.

A2.1 cells = assay: Three-dimensional collagen invasion assay, A2.1 cells; format: cell-based, human; details: 300 nM
Protocol: Images were analyzed using Imaris software.

KPC cells [5] = assay: Lung colonization assay after tail vein injection of drug-pretreated KPC cells; format: in vivo, mouse
From the text: FIG. 5E (left panel) are representative merged brightfield/GFP imaged of whole lung as well as H&E stains of representative sections of pulmonary lobes after tail vein injection of crenolanib- or DMSO-treated KPC cells into mice. FIG. 5E (right panel) is a graph of quantification of total number of lung metastatic nodules in individual mouse (at least six mice per each group). Data are represented as mean±SD.
FIG. 6B (left panel) are representative merged brightfield/GFP images of whole lung. FIG. 6B (middle panel) are H&E stainings of representative sections of pulmonary lobes. […] FIG. 6B (right panel) is a graph of quantification of total number of lung metastatic nodules in individual mouse (at least six mice per each group. Data are represented as mean±SD.
(§3) All animal experiments were performed in accordance with a protocol approved by the Memorial Sloan-Kettering Institutional Animal Care and Use Committee. For colonization studies, KPC cells (1×10^5) were resuspended in 200 μl PBS and injected intravenously into the tail vein of 8 week-old female athymic nude mice. Lungs were harvested 7 days post injection and analyzed for colonization by GFP positivity (Nikon SMZ1500) and histology.

KPflC cells = assay: Lung colonization assay after tail vein injection of drug-pretreated KPflC cells; format: in vivo, mouse; details: same concentration as for KPC cells
Protocol: FIG. 12G (left panel) depicts representative merged brightfield/GFP images of pulmonary lobes after tail vein injection of crenolanib- or DMSO-treated KPflC cells into mice. FIG. 12G (middle panel) depicts H&E stainings of representative sections of pulmonary lobes. FIG. 12G (right panel) is a graph of quantification of total number of lung metastatic nodules in individual mouse (at least six mice per each group). Data are represented as mean±SD.
as §3

KPC cells [6] = assay: Propidium Iodide staining of KPC cells treated overnight; format: cell-based, mouse; details: KPC cells pretreated overnight
KPC cells [7] = assay: Three-dimensional collagen invasion assay, KPC cells
Protocol: FIG. 5D (left panel) is a graph of quantification of invasion of murine KPC and human A2.1 treated with either DMSO or crenolanib at 300 nM. Values are means±SD of 9 replicates from one representative experiment.
In brief, 24-well transwell inserts (Greiner bio-one) were lined with collagen type 1 (BD Biosciences), and cells were seeded on the inverted inserts. The lower chambers were filled with medium containing 0.5% FBS and upper chambers containing the collagen matrix were filled with medium containing 20% FBS and the chemoattractant HGF.
Invasion assay inserts were fixed using 4% formaldehyde and stained using DAPI and Alexa568 phalloidin (Invitrogen) before confocal microscopy (Perkin Elmer Spinning Disk) was conducted. Images were analyzed using Imaris software.

KPC mice = assay: Treatment of KPC mice (PDAC mouse model): tumor, survival and metastasis; format: in vivo
From the text: FIG. 6D is a graph of quantification of the number of mice with metastatic disease at the time of death. Values are percentages of the total number of mice in each cohort. Colored columns represent mice with metastases (METS) and white columns represent disease-free (DF) animals.
FIG. 6E is a graph of quantification of the number of mice with lung, lymph nodes or liver metastatic disease at the time of death. Values are percentages of the total number of mice in each cohort. Colored columns represent mice with metastases (METS) and white columns represent disease-free (DF) animals.
Strains were maintained on mixed background. […] Organs and tumors were removed and fixed in 10% buffered formalin and tumor and metastatic burden was assessed by gross pathology and histology.

PDGFRb [8] = target: T1, PDGFRb; assay: phospho-PDGFRb in pancreatic tumors of treated KPC mice (immunofluorescence); format: in vivo; details: 50 mg/kg oral gavage twice daily
Protocol: DAPI, blue; CK8, red and p-PDGFRb, green. […] 15 images were analyzed per tumor (n=7). Tissues were fixed overnight in formalin, embedded in paraffin, and cut into 5-μm thick sections. Sections were subjected to hematoxylin and eosin staining, and immunohistochemical and immunofluorescent staining following standard protocols. The following primary antibodies were used: mouse anti-GFP (Cell Signaling), rabbit anti-p-PDGFR-β ([MUT]) (Santa Cruz Biotechnology) and rat anti-CK8 (DSHB). […] Images were acquired using a Zeiss Axio Imager D1 scope.

[9] = 50 mg/kg oral gavage twice daily

T1 sequence (P05622 32-1098): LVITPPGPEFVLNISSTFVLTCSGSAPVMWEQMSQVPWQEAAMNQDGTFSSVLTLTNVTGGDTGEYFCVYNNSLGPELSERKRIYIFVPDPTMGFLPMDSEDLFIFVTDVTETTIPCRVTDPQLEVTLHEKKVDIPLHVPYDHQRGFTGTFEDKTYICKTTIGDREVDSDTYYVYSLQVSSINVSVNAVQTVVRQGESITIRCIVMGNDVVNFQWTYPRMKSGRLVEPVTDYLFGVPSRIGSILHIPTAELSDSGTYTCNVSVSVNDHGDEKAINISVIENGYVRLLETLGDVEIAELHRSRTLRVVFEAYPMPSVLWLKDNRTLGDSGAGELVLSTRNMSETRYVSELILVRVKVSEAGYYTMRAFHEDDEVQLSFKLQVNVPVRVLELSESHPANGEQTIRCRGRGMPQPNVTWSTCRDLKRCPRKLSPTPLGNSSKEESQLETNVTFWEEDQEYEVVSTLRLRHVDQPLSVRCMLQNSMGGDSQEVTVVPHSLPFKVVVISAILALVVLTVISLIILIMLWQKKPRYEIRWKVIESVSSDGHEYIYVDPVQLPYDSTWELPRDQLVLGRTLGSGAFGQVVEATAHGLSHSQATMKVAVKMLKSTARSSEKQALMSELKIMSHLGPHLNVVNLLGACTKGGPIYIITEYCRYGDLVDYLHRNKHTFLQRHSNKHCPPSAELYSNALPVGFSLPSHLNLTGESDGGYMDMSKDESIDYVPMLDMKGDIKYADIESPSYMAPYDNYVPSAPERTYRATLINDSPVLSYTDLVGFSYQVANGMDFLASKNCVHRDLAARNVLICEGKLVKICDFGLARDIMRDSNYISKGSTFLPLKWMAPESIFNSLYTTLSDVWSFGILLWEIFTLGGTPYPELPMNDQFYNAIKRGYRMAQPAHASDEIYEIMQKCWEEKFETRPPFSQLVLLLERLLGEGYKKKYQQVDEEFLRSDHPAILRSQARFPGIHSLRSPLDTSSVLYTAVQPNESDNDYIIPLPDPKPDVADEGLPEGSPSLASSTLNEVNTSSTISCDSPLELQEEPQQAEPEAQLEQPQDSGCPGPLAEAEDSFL
T2 sequence (P09619 33-1106): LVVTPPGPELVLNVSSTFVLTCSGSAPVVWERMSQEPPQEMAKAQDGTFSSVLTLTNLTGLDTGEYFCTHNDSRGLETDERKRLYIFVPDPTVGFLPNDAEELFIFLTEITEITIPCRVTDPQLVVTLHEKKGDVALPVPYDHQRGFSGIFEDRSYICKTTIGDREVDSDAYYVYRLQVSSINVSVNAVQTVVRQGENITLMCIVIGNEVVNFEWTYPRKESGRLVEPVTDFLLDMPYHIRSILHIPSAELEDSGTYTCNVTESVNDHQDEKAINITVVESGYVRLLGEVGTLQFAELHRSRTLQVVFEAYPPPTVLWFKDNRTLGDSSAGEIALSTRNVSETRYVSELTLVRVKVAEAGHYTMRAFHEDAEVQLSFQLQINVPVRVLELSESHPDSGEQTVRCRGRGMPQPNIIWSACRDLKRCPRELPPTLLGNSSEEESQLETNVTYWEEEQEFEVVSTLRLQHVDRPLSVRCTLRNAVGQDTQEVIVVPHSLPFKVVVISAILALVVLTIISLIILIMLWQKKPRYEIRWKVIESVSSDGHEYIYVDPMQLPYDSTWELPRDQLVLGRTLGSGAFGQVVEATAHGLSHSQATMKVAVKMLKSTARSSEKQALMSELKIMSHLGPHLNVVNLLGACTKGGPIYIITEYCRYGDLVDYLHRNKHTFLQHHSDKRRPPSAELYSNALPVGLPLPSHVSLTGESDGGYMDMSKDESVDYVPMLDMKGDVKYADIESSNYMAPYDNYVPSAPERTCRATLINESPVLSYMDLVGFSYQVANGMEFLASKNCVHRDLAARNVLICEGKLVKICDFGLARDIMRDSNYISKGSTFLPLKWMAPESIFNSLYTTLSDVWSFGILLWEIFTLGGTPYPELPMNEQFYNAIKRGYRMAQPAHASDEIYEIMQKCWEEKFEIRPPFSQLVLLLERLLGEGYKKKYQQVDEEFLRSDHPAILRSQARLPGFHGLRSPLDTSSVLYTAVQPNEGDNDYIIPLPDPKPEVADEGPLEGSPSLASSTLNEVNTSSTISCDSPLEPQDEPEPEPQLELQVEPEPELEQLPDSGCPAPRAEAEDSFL

Row | Structure (SMILES) | toxicity ([1]; KPC cells, 0.3 μM) | IC50 ([1]; Mus musculus, Pancreatic cancer cell, murine KPC cells, MTS assay, 72 hours, read-out: IC50, inhibiting the viability) | toxicity ([2]; A2.1 cells, 0.3 μM) | IC50 ([2]; Pancreatic cancer cell, human A2.1 cells, MTS assay, 72 hours, read-out: IC50, inhibiting the viability) | inhibition of PDGFRb activity, as measured by phospho-PDGFRb (PDGFRb [3]; 0.3 μM) | time of drug treatment to strong target inhibition (PDGFRb [3]; time course, 300 nM) | inhibition of PDGFRb activity, as measured by phospho-PDGFRb (PDGFRb [4]) | invasion relative to cells treated with DMSO (A2.1 cells) | lung nodules compared to controls pre-treated with DMSO (KPC cells [5]; KPC cells pretreated overnight, injected intravenously) | metastatic potential in lung colonization assay (KPflC cells) | viability of the injected cell population (KPC cells [6]) | invasion relative to cells treated with DMSO (KPC cells [7]; 300 nM) | PDGFRb tyrosine phosphorylation (PDGFRb [3]; 3 uM) | potential to colonize the lungs of recipient athymic mice (KPC cells [5]; pre-treatment of KPC cells) | anti-metastatic effect across organs (liver, lymph nodes and lung) (KPC mice; [9]) | occurrence of metastasis (KPC mice; [9]) | overall survival (KPC mice; 50 mg/kg oral gavage twice daily from 8 weeks of age) | incidence of metastasis (KPC mice; 50 mg/kg oral gavage twice daily, GFP fluorescence and histopathology, 92% in vehicle-treated animals) | levels of phospho-PDGFRb in the tumor cells of primary tumors (PDGFRb [8]) | invasive potential in vitro (KPC cells [7]; 3 μM vs DMSO)
1 | CC1(COc2ccc3c(c2)ncn3-c2ccc3cccc(N4CCC(N)CC4)c3n2)COC1 [crenolanib, Crenolanib] | no toxicity was observed | 13.1 µM | no toxicity was observed | 8.5 µM | Strong inhibition | ≤ 10 min | Strong inhibition | substantially reduced invasion | significantly fewer lung nodules | did not reduce the metastatic potential | no effect on the viability | substantially reduced invasion | – | – | – | – | – | – | – | –
2 | Cc1ccc(NC(=O)c2ccc(CN3CCN(C)CC3)cc2)cc1Nc1nccc(-c2cccnc2)n1 [imatinib] | – | – | – | – | – | – | – | – | – | – | – | – | strongly reduced PDGFRb tyrosine phosphorylation | decreased their potential to colonize the lungs | anti-metastatic effect was observed | striking reduction in the occurrence of metastasis | no impact | 15% | reduced levels of phospho-PDGFRb | significantly reduced the invasive potential
